Test results from ChEMBL document CHEMBL1201862, “PubChem BioAssay data set” (2004).
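1) Cells in 96-well plates. 2) Compound, 48 h, 5 concentrations. 3) Linear interpolation between surrounding doses. 4) Unreached endpoint = highest concentration. The concentration for 50% growth inhibition is given as GI50.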 The source made the active and inactive calls. No stated cut-off is given here; in the data, active = GI50 up to about 1.1 µM and inactive = higher.

Assays:
Experiment in all cases: growth of human tumour cells (NCI), 48 h
[1] = system: 786-0
[2] = system: A498
[3] = system: A549
[4] = system: ACHN
[5] = system: BT-549
[6] = system: CAKI-1
[7] = system: CCRF-CEM
[8] = system: COLO 205
[9] = system: DU-145
[10] = system: EKVX
[11] = system: HCC 2998
[12] = system: HCT-116
[13] = system: HCT-15
[14] = system: HL-60
[15] = system: HOP-62
[16] = system: HOP-92
[17] = system: HT-29
[18] = system: Hs-578T
[19] = system: IGROV-1
[20] = system: K562
[21] = system: KM12
[22] = system: LOX IMVI
[23] = system: M14
[24] = system: MCF7
[25] = system: MDA-MB-231
[26] = system: MDA-MB-435
[27] = system: MDA-N
[28] = system: MOLT-4
[29] = system: Malme-3M
[30] = system: NCI-H226
[31] = system: NCI-H23
[32] = system: NCI-H460
[33] = system: NCI-H522
[34] = system: NCI/ADR-RES
[35] = system: OVCAR-3
[36] = system: OVCAR-4
[37] = system: OVCAR-5
[38] = system: OVCAR-8
[39] = system: PC-3
[40] = system: RPMI-8226
[41] = system: RXF 393
[42] = system: SF-268
[43] = system: SF-295
[44] = system: SF-539
[45] = system: SK-MEL-28
[46] = system: SK-MEL-2
[47] = system: SK-MEL-5
[48] = system: SK-OV-3
[49] = system: SN12C
[50] = system: SNB-19
[51] = system: SNB-75
[52] = system: SR
[53] = system: T47D
[54] = system: TK-10
[55] = system: U-251
[56] = system: UACC-257
[57] = system: UACC-62
[58] = system: SW-620
[59] = system: UO-31

Measured: GI50

CCOC(CCNCC(OCC)OCC)OCC
inactive: [1] > 10 µM | [2] > 10 µM | [3] > 10 µM | [4] > 10 µM | [5] > 10 µM | [6] > 10 µM | [7] > 10 µM | [8] > 10 µM | [9] > 10 µM | [10] > 10 µM | [11] > 10 µM | [12] > 10 µM | [14] > 10 µM | [15] > 10 µM | [16] > 10 µM | [17] > 10 µM | [18] > 10 µM | [19] > 10 µM | [20] > 10 µM | [21] > 10 µM | [22] > 10 µM | [23] > 10 µM | [24] > 10 µM | [25] > 10 µM | [26] > 10 µM | [27] > 10 µM | [28] > 10 µM | [29] > 10 µM | [30] > 10 µM | [31] > 10 µM | [32] > 10 µM | [33] > 10 µM | [34] > 10 µM | [35] > 10 µM | [36] > 10 µM | [37] > 10 µM | [38] > 10 µM | [39] > 10 µM | [40] > 10 µM | [41] > 10 µM | [42] > 10 µM | [43] > 10 µM | [44] > 10 µM | [45] > 10 µM | [46] > 10 µM | [47] > 10 µM | [48] > 10 µM | [49] > 10 µM | [50] > 10 µM | [51] > 10 µM | [52] > 10 µM | [53] > 10 µM | [54] > 10 µM | [55] > 10 µM | [56] > 10 µM | [57] > 10 µM
> 10 µM: [13]

CCOC(=O)CCc1c(C)nc2c(C)c3c([nH]c4ccc(Cl)cc43)c(C)c2c1O
active: [37] 0.843 µM
inactive: [1] 6.37 µM | [2] 1.8 µM | [3] 4.51 µM | [4] 12.1 µM | [5] 10.1 µM | [6] 18.2 µM | [7] 7.91 µM | [8] 10.4 µM | [9] 25.5 µM | [10] 10.2 µM | [11] 14.1 µM | [12] 10.9 µM | [14] 4.94 µM | [15] 12.3 µM | [16] 15.8 µM | [17] 4.75 µM | [18] 17.6 µM | [19] 10.2 µM | [21] 11.7 µM | [22] 10.9 µM | [23] 4.94 µM | [24] 7 µM | [25] 12.6 µM | [26] 9.18 µM | [27] 10.7 µM | [28] 6.01 µM | [29] 11.3 µM | [30] 17.1 µM | [31] 19.2 µM | [32] 2.15 µM | [33] 6.81 µM | [34] 17.3 µM | [36] 6.89 µM | [38] 23.5 µM | [39] 4.19 µM | [41] 2.96 µM | [42] 14.3 µM | [43] 5.55 µM | [44] 11.2 µM | [45] 14.1 µM | [46] 1.45 µM | [47] 6.12 µM | [50] 9.59 µM | [51] 4.37 µM | [52] 6.55 µM | [58] 22.4 µM | [53] 14.8 µM | [54] 10.7 µM | [55] 11 µM | [56] 6 µM | [59] 16.1 µM
12.2 µM: [13]

COc1cc2c3cc1Oc1c(OC)c(OC)cc4c1C(Cc1ccc(O)c(c1)Oc1ccc(cc1)CC3N(C)CC2)CN(C)C4 (stereo not drawn)
inactive: [1] 10.8 µM | [2] 16.9 µM | [3] 22.5 µM | [4] 27.4 µM | [5] 14.8 µM | [6] 20.2 µM | [7] 2.07 µM | [8] 10 µM | [9] 17.7 µM | [10] 19 µM | [11] 3.44 µM | [12] 6.05 µM | [15] 20 µM | [16] 16 µM | [17] 3.24 µM | [18] 15.5 µM | [19] 20.5 µM | [20] 5.22 µM | [21] 13.2 µM | [23] 4.1 µM | [24] 16.4 µM | [25] 12.2 µM | [26] 11.5 µM | [27] 12.2 µM | [28] 7.31 µM | [29] 16.8 µM | [30] 28.7 µM | [31] 16.9 µM | [32] 16 µM | [33] 12.5 µM | [34] 19.3 µM | [35] 15 µM | [36] 17.6 µM | [37] 21.5 µM | [38] 15 µM | [39] 21.1 µM | [40] 13 µM | [41] 10.6 µM | [42] 20.4 µM | [43] 17.9 µM | [44] 12.9 µM | [45] 16.8 µM | [46] 18.3 µM | [47] 13.5 µM | [48] 23.4 µM | [49] 15.8 µM | [50] 24.3 µM | [51] 14.2 µM | [52] 6.14 µM | [58] 12.9 µM | [53] 22.1 µM | [54] 16.1 µM | [55] 12.3 µM | [56] 13.5 µM | [57] 18.1 µM | [59] 16.1 µM
active: [14] 1.11 µM
14 µM: [13]
